Assays:
[1] = Acid dissociation constant pKa of the aromatic compound used as precursor material
[2] = physchem

Row | Structure (SMILES) | pKa [1] | pKa [2]
1 | O=C(O)c1cc(C(=O)O)c(C(=O)O)cc1C(=O)O [benzene-1,2,4,5-tetracarboxylic acid] | 3.5 to 4.5 | 
2 | O=C(O)c1cccc(C(=O)O)c1 [benzene-1,3-dicarboxylic acid] | 3.5 to 4.5 | 
3 | O=C(O)c1ccc(C(=O)O)c(C(=O)O)c1 [benzene-1,2,4-tricarboxylic acid] | 3.5 to 4.5 | 
4 | O=C(O)c1ccccc1C(=O)O [benzene-1,2-dicarboxylic acid] |  | 3.5 to 4.5
5 | O=C(O)c1ccc(C(=O)O)c2c(C(=O)O)ccc(C(=O)O)c12 [naphthalene-1,4,5,8-tetracarboxylic acid] | 3.5 to 4.5 | 
6 | O=C(O)c1ccc(C(=O)O)cc1 [benzene-1,4-dicarboxylic acid] |  | 3.5 to 4.5
7 | O=C(O)c1ccc2c3ccc(C(=O)O)c4c(C(=O)O)ccc(c5ccc(C(=O)O)c1c25)c43 [perylene-3,4,9,10-tetracarboxylic acid] | 3.5 to 4.5 | 

Second part, led by results:

Row | pKa [1] | Structure (SMILES) | pKa [2]
8 | 3.5 to 4.5 | O=C(O)c1cccc2cccc(C(=O)O)c12 [naphthalene-1,8-dicarboxylic acid] | 
9 | 4.2 | O=C(O)c1cccc2ccccc12 [naphthalene-1-carboxylic acid] | 
10 | 3.5 to 4.5 | O=C(O)c1ccc(C(=O)O)c2ccccc12 [naphthalene-1,4-dicarboxylic acid] | 
